Reference: PMC10861534, “Poly-γ-glutamylation of biomolecules” (Nature Communications, 2024)

Experiments:
Tm-DHFR = molecular target: T1, Tm-DHFR (Thermotoga maritima, UniProt Q60034); assay: 1H NMR of reaction; format: biochemical; conditions: 1 mM folate-2, 2 mM NADPH, pH 7.0, 37 °C; reduced to tetrahydrofolate-2
T1 construct: gene folA; synthesized ORF in pProEX-HTb, E. coli BL21(DE3) LOBSTR; TALON and SEC
T1 sequence (Q60034 1-169): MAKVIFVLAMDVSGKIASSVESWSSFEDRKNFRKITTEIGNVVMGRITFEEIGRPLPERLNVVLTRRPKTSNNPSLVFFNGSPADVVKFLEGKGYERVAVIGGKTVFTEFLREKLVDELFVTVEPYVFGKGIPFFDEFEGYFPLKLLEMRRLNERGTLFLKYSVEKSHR

Mtb-FPGS = molecular target: T2, Mtb-FPGS (Mycobacterium tuberculosis, UniProt I6Y0R5)
T2 construct: gene folC

hFPGS = molecular target: T3, hFPGS (Homo sapiens, UniProt Q05932); assay: LC-MS of reaction products; format: biochemical; conditions: 5 mM analogue, 0.5 mM folate, 5 mM ATP, 10 mM MgCl2, pH 8.5, 37 °C; chain terminator
T3 construct: gene FPGS; ORF in pFastBacHTa, N-terminal His6-tag, Sf9 insect cells
T3 sequence (Q05932 43-587): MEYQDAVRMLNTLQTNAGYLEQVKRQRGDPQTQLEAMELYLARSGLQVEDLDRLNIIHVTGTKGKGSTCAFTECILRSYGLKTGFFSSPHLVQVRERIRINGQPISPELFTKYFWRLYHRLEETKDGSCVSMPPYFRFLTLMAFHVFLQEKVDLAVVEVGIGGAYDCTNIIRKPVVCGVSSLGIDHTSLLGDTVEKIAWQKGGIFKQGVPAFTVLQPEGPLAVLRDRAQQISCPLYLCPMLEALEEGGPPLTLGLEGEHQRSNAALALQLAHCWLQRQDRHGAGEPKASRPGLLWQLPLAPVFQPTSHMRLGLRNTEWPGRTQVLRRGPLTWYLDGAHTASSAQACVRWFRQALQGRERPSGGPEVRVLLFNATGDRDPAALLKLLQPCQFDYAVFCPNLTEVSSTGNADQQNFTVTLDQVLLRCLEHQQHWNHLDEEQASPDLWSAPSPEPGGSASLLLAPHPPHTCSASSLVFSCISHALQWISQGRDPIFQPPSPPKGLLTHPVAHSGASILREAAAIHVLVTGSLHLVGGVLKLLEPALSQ

Af-CofE = molecular target: T4, Af-CofE (Archaeoglobus fulgidus, UniProt O28028); assay: LC-MS of reaction products; format: biochemical; conditions: 2 mM analogue, 50 uM F420-1, 2 mM GTP, 2 mM MgCl2/MnCl2, pH 8.5, 37 °C; chain terminator
T4 construct: codon-optimized ORF in pProEX-HTb, E. coli BL21(DE3) LOBSTR; N-terminal His6-tag removed by rTEV; co-purified flavins washed off with urea/KBr; homodimer

Mtb-FbiB = Mtb-FbiB (Mycobacterium tuberculosis, UniProt P9WP79)
Chain of Mtb-FbiB (P9WP79 whole entry): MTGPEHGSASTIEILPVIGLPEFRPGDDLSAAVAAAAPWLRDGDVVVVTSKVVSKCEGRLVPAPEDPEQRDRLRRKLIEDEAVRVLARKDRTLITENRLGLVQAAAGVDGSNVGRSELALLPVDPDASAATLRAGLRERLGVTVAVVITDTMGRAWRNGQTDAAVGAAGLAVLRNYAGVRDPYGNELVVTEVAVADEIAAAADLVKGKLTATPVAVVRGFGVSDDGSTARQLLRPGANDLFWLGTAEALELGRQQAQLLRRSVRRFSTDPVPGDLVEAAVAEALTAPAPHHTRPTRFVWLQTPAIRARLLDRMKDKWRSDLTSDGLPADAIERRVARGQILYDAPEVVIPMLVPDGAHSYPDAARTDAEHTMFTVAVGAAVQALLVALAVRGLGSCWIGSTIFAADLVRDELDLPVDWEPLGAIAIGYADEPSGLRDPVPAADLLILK

T2 sequence (I6Y0R5 whole entry): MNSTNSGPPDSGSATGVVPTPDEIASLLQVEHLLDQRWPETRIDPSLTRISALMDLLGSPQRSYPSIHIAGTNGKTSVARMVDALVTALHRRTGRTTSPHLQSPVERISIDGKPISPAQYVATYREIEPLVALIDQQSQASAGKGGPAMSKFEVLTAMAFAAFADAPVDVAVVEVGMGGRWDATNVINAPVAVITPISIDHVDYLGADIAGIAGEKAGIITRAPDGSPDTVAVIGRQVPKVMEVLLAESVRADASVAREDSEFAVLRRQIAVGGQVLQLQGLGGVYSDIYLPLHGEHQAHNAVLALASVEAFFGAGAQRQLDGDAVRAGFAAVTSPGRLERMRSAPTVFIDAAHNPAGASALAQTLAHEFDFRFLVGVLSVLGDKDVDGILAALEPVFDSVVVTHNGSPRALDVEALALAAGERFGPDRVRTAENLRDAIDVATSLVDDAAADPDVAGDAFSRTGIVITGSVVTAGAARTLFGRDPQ
T4 sequence (O28028 whole entry): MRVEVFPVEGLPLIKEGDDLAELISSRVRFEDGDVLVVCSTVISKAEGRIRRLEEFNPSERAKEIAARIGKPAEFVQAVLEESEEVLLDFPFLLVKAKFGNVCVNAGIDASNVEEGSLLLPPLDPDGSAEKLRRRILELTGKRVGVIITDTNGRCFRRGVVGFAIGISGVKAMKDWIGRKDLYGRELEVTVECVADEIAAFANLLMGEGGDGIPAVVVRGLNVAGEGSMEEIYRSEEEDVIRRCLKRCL

Structure (SMILES)	1H NMR of reaction (Tm-DHFR)	LC-MS of reaction products (Mtb-FPGS)	LC-MS of reaction products (hFPGS)	LC-MS of reaction products (Af-CofE)	LC-MS of reaction products (Mtb-FbiB)
Nc1nc2ncc(CNc3ccc(C(=O)N[C@@H](CCC(=O)N[C@@H](CCC(=O)O)C(=O)O)C(=O)O)cc3)nc2c(=O)[nH]1 [folate-2, pteroyldi-γ-L-glutamic acid]	pre-incubation with Tm-DHFR initiated the production of tetrahydrofolate-2	addition of only a single L-glutamate molecule to afford folate-3 as the major product	–	–	–
N[C@@H](CC[N+](=O)[O-])C(=O)O [4-nitro-L-2-aminobutyric acid, (2S)-2-Amino-4-nitrobutanoic acid]	–	acts as a substrate across all enzymes and both cofactors	acts as a substrate across all enzymes and both cofactors	acts as a substrate across all enzymes and both cofactors	acts as a substrate across all enzymes and both cofactors
